Patent publication US20240197709A1, “POTENTIATING THE TUMOR-SELECTIVE EFFECTS OF NQO1-BIOACTIVATABLE AGENT BY USE OF CMET INHIBITOR” (The Trustees of Indiana University, priority 2022, published 2024)

Experiments:
A549 NSCLC cells = assay: long-term cell survival assay, A549; format: cell-based; conditions: sub-lethal crizotinib (2 μM) 2 h pre-treatment, then criz ± β-lap 2 h, ~7 days, DER >1 = synergistic
Description: FIG. 1B. […] LC50 values were calculated from long-term cell survival graphs using GraphPad PRISM; ND denotes Not Determined even at the highest concentration presented. All error bars represent the mean±SEM. **** p<0.0001, *** p<0.001, ** p<0.01, *p<0.05.
FIG. 1C. […] LC50 values were calculated from long-term cell survival graphs using GraphPad PRISM; ND denotes Not Determined even at the highest concentration presented. All error bars represent the mean±SEM. **** p<0.0001, *** p<0.001, ** p<0.01, *p<0.05.

A549 shSCR 3D spheroids = assay: 3D spheroid growth and viability, A549 shSCR; format: cell-based; conditions: β-lap 3 μM
Description: (§1) FIG. 5A. Representative brightfield images of A549 shSCR versus shMET 3D spheroids treated with vehicle control (0.1% DMSO) or β-lap (3 μM, which is sub-lethal in A549 NSCLC cells in 2D long-term survival assays) imaged at indicated times to monitor microtumor spheroid growth. Scale bar=250 μm.
(§2) FIG. 5B. Graphical comparison of 3D spheroid (microtumor) growth of A549 shSCR vs shMET at indicated treatments over time relative to initial 3D spheroid area (day 1).
(§3) FIG. 5C. Quantification of 3D spheroid viability at day 10 (in panel A) using CellTiter-Glo® 3D Cell Viability Assay.
(§4) Studies have shown that drug sensitivity of cancer cells cultured in three-dimension (3D) more accurately predicts their sensitivity in vivo.30-31 Thus, we utilized 3D tumor spheroid growth of our isogenic A549 shSCR or shMET cancer cell lines to closely recapitulate the cell-cell interactions of human tumors32-33. After three days of spheroid formation, A549 shSCR and shMET microtumors were exposed to vehicle control (0.1% DMSO) or β-lap (3 μM, sub-lethal concentration in 2D culture for A549 parental line), and imaged over time for 3D spheroid tumor growth for comparison. […] Additionally, the viability of A549 shSCR versus shMET 3D spheroids treated with vehicle control and β-lap at day 10 was determined using CellTiter-Glo® 3D Viability Assay (FIG. 5C) for comparison. […]

A549 shMET 3D spheroids = assay: 3D spheroid growth and viability, A549 shMET; format: cell-based; conditions: β-lap 3 μM
Description: as §1, §2, §3, §4

[1] = β-lap monotherapy; cited from earlier work

## CC1(C)CCC2=C(O1)c1ccccc1C(=O)C2=O [β-lap, β-Lapachone]
A549 NSCLC cells
  DERLC50 (dose-enhancement ratio) of β-lap: 6.6
A549 shSCR 3D spheroids
  3D spheroid (microtumor) growth over time: relatively negligible microtumor lethality
  3D spheroid viability at day 10 (CellTiter-Glo 3D): no significant lethality
A549 shMET 3D spheroids
  3D spheroid (microtumor) growth over time: potentiated the lethal effect
  3D spheroid viability at day 10 (CellTiter-Glo 3D): more hypersensitive
[1]
  toxicity at high doses in clinical trials: methemoglobinemia and haemolysis
